Experimental data reported in ChEMBL document CHEMBL1134825, “Semi-synthesis of 2-deoxo- and 3-epi-paraherquamide A” (Bioorg Med Chem Lett, 2001).
Calls of active or inactive are those of the source. The rule behind the calls is not given here.

Columns and labels:
helminth = assay: Compound was tested for antihelminthic activity; No activity; type: functional
[1] = Lethal dose in mice was determined; type: toxicity, organism-based; conditions: mouse, in vivo
[2] = Lethal dose in dog was determined; type: toxicity, organism-based, Canis lupus familiaris; conditions: in vivo

| SMILES | Activity (helminth) | LD50 [1] [mg/kg] | LD50 [2] [mg/kg] |
| --- | --- | --- | --- |
| CN1C(=O)[C@]23CC4C1(CN2CC[C@@]3(C)O)CC1(C(=O)Nc2c1ccc1c2OC=CC(C)(C)O1)C4(C)C (stereo partly drawn) | inactive | – | – |
| CN1C(=O)[C@]23C[C@@H]4C(C)(C)[C@@]5(C[C@@]41CN2CC[C@@]3(C)O)C(=O)Nc1c5ccc2c1OC=CC(C)(C)O2 [Paraherquamide A] | – | < 15 | 0.5 |
